Experimental data as given in patent publication US6365631B1, “Method of treating sleep apnoea” (Knoll Pharmaceutical Company, priority 1999, dated 2002).

Tests used:
[1] = system: patients suffering from clinically relevant obesity, many with serious sleep apnoea problems; test: clinical study, computer supported arousal/apnoea recognition in subset of 36 of 150 obese patients; assay type: in vivo, human; settings: Sibutramine 20 mg daily; week-12 vs week-1 (pre-treatment); subset of 36 patients
Description: The beneficial effects of the compounds of the present invention at doses of 15 mg and 20 mg daily may also be confirmed in a double-blind, randomised, placebo-controlled clinical trial using questionnaires or by recording Holter ecgs with a Rozin/GeTeMed tape recorder device for 24 to 36 hours pre and post treatment period, using IEC-I type tapes. The ecg data may be computer-processed to study arousals.
In a clinical study with 150 patients suffering from clinically relevant obesity, many of them with serious sleep apnoea problems, a subset of 36 patients was arbitrarily selected for computer supported arousal/apnoea recognition. Two consecutive nights were recorded at week-1 (pre-treatment) and week-12 of treatment, and the number of arousals per hour of sleep time was evaluated. […] Compared to placebo this is significant at a 5%-level (p=0.0227).

[2] = system: patients suffering from clinically relevant obesity (BMI>30) and sleep apnoea; test: open explorative study with 5 volunteer patients with obesity and sleep apnoea
Description: Study design: An open explorative study with 5 volunteer patients suffering from clinically relevant obesity (BMI>30) and sleep apnoea was performed. […] No other control treatment was applied.
Methods: Patients willing to lose weight who had obtained prescriptions for Reductil® (Knoll) from their doctor were asked to take part in this voluntary observational study. All patients were willing to change dietary habits during treatment, and to perform at least moderate physical training (twice a week at least half an hour). Patients were interviewed pre and post treatment, and their partners asked for their observations on snoring behaviour. The patients were asked for their own rating of severity of daytime sleepiness, and their partners for objective observations about frequency and heaviness of snoring as well as for their observations about apnoea signs.

[3] = 5 patients, 10 or 15 mg daily, 6 to 14 weeks

`CC(C)CC(N(C)C)C1(c2ccc(Cl)cc2)CCC1` (stereo not drawn) [sibutramine, N,N-dimethyl-1-[1-(4-chlorophenyl)cyclobutyl]-3-methylbutylamine] was tested, and the “reduction of number of arousals per hour of sleep time” value [1] was “clinically significant effect”, the “mean weight loss under treatment” value [2, 3] was 14 kg and the “weight loss, span over patients” value [2, 3] was −7% to −22%. The “mean weight loss under treatment (percent)” value ([2]; 5 patients, 10 or 15 mg/kg daily, 6 to 14 weeks) was 14.6%, the “Mean BMI at end of treatment” value ([2]; 5 patients, sibutramine 10 or 15 mg daily, 6 to 14 weeks, 34 before treatment) was 29 and the “arousal index Al, mean after treatment” value ([2]; mean 23,5 before treatment) was 10,0. For the same compound, the “patients with clearly reduced daytime sleepiness” value ([2]; of 5 patients, after treatment) was 4 out of 5, the “patients reporting improved ease of breathing with closed mouth” value ([2]; of 5 patients, under treatment) was 3 out of 5 and the “decrease of arousal index, span over patients” value ([2]; pre vs post treatment) was −25% to −67%. For the same compound, the “mean decrease of arousal index” value ([2]; pre vs post treatment) was −57%, the “daytime sleepiness scale after treatment, patient-reported” value ([2]; scale 0-3, 2,0 before treatment) was 0,6 and the “snoring scale mean after treatment, observed by sleep companions” value ([2]; scale 0-3, mean score 2,2 before treatment) was 1.
